Values of other authors as cited in paper PMC11387175, “Model informed dose regimen optimizing in development of leritrelvir for the treatment of mild or moderate COVID-19” (Frontiers in Pharmacology, 2024).
Where two headings read alike, the source gives them in different places.

System: Delta variant
Set-up: method as in Chen et al., 2023
Details: ref Chen et al., 2023, cited from earlier work

O=C(NC1CCCC1)C(=O)[C@H](C[C@@H]1CCNC1=O)NC(=O)[C@@H]1[C@H]2CCC[C@H]2CN1C(=O)[C@@H](NC(=O)C(F)(F)F)C1CCCCC1 [leritrelvir]
inhibition rate (300 mg/kg): 42.86% | inhibition rate (600 mg/kg): 100% | lung pathology: favorable enhancements | viral titers in the lungs of mice after infection: significantly reduced
